Test results: US20130310374A1, “Substituted Imidazoquinoline Derivatives” (PIRAMAL ENTERPRISES LIMITED`, priority 2010, published 2013)

How the values were obtained:
[1] = tested on: PC3; experiment: Cytotoxicity propidium iodide assay, PC3; type: cell-based, human; conditions: Homo sapiens, PC-3; PC3 (prostate), 48 hours treatment; read-out: IC50 Values in μM, C2a
Protocol: (§1) The assay was designed as in the reference, Anticancer Drugs, 2002, 13, 1-8, the disclosure of which is incorporated herein by reference for the teaching of the assay.
(§2) Cells from cell lines (ATCC) as mentioned in the table given below were seeded at a density of 3000 cells/well in a white opaque 96-well plate. Following incubation at 37° C./5% CO2 for a period of 18-24 hours, the cells were treated with various concentrations (stock solution was prepared in DMSO and subsequent dilutions were made in media as per ATCC guidelines) of the compounds of the present invention for a period of 48 hours. At the end of treatment, the culture medium was discarded, the cells were washed with 1×PBS and 200 μL of […] propidium iodide was added to each well. The plates were frozen at 70° C. overnight. For analysis, the plates were warmed to RT, allowed to thaw and were read in PoleStar fluorimeter with the fluorescence setting. The percentage of viable cells in the non-treated set of wells was considered to be 100 and the percentage viability following treatment was calculated accordingly. IC50 values were calculated from graphs plotted using these percentages. IC50 values for certain compounds of present invention are depicted in Table 1 and % Inhibition of certain compounds of present invention are depicted in Table 2.

[2] = tested on: PI3K/mTOR pathway; experiment: Western blot analysis in A2780 ovarian cancer cell line; type: cell-based; conditions: A2780 cells treated for 1 hour; FIG. 1A-1E
Protocol: Protocol for Western Blot Analysis
A2780 ovarian cancer cell line (ATCC) were grown to approximately 70% confluence in 100-mm tissue culture dishes and then treated for 1 hour with […] compounds of Example 2, 3, 5, 16, 19, 55 and 59. Total protein was extracted using cell lysis buffer (NaCl […], NP40 0.67%, Tris-Cl, pH 7.5, 67 mM) containing protease inhibitors and phosphatase inhibitors (Beta-glycerol phosphate 40 mM, DTT 1 mM, NaF 0.4 mM, Sodium-Orthovanadate 0.4 mM) at 4° C. for 1 hour. Cell lysates were then centrifuged at 2×10^4 g for 10 minutes at 4° C., and the protein concentration of the supernatant was quantified using the Bradford's method (BioRad, USA). For SDS-PAGE, 50 μg protein was loaded in SDS-PAGE, transferred to a polyvinylidene difluoride membrane (Bio-Rad, USA) and blocked with 5 mL buffer [5% skim milk and 0.1% Tween] for 1 hour 30 minutes. Membrane were probed with primary antibody (all primary antibodies were from cell signaling with 1:1000 in TBST solution) of respective protein at 4° C. overnight. Peroxidase-labeled anti-rabbit or anti-mouse antibodies (Santacruze, USA) were used as the secondary antibody. Actin and respective whole protein levels were used as the control for protein loading. Protein antigens were detected using Chemiluminescent Substrate (Thermo scientific, USA) and exposed on Kodak station.

[3] = tested on: A2780; experiment: Cytotoxicity propidium iodide assay, A2780; type: cell-based; conditions: Homo sapiens; A2780 (ovarian), 48 hours treatment; read-out: IC50 Values in μM, C1a
Protocol: as §1, §2

[4] = tested on: K562; experiment: Cytotoxicity propidium iodide assay, K562; type: cell-based; conditions: K562 (CML), 48 hours treatment; read-out: IC50 Values in μM, C6a
Protocol: as §1, §2

[5] = tested on: LN18; experiment: Cytotoxicity propidium iodide assay, LN18; type: cell-based; conditions: LN18 (glioblastoma), 48 hours treatment; read-out: IC50 Values in μM, C5b
Protocol: as §1, §2

[6] = tested on: LN229; experiment: Cytotoxicity propidium iodide assay, LN229; type: cell-based; conditions: LN229 (glioblastoma), 48 hours treatment; read-out: IC50 Values in μM, C5a
Protocol: as §1, §2

[7] = tested on: KU812/SR; experiment: Cytotoxicity propidium iodide assay, KU812/SR; type: cell-based; conditions: KU812/SR (CML), 48 hours treatment; read-out: IC50 Values in μM, C6c
Protocol: as §1, §2

[8] = tested on: KCL22/SR; experiment: Cytotoxicity propidium iodide assay, KCL22/SR; type: cell-based; conditions: KCL22/SR (CML), 48 hours treatment; read-out: IC50 Values in μM, C6e
Protocol: as §1, §2

[9] = tested on: BxPC3; experiment: Cytotoxicity propidium iodide assay, BxPC3; type: cell-based; conditions: Homo sapiens, BXPC-3; BxPC3 (pancreatic), 48 hours treatment; read-out: IC50 Values in μM, C4c
Protocol: as §1, §2

[10] = tested on: AsPC 1; experiment: Cytotoxicity propidium iodide assay, AsPC 1; type: cell-based; conditions: Homo sapiens, ASPC1; AsPC 1 (pancreatic), 48 hours treatment; read-out: IC50 Values in μM, C4b
Protocol: as §1
as §2, with “The plates were frozen at 70° C. overnight.” left out

[11] = tested on: MDA MB 468; experiment: Cytotoxicity propidium iodide assay, MDA MB 468; type: cell-based; conditions: Homo sapiens; MDA MB 468 (breast), 48 hours treatment; read-out: IC50 Values in μM, C3b
Protocol: as §1, §2

[12] = tested on: PANC 1; experiment: Cytotoxicity propidium iodide assay, PANC 1; type: cell-based; conditions: Homo sapiens; PANC 1 (pancreatic), 48 hours treatment; read-out: IC50 Values in μM, C4a
Protocol: as §1, §2

[13] = tested on: MCF7; experiment: Cytotoxicity propidium iodide assay, MCF7; type: cell-based; conditions: Homo sapiens; MCF7 (breast), 48 hours treatment; read-out: IC50 Values in μM, C3d
Protocol: as §1, §2

[14] = tested on: MDA MB 231; experiment: Cytotoxicity propidium iodide assay, MDA MB 231; type: cell-based; conditions: Homo sapiens; MDA MB 231 (breast), 48 hours treatment; read-out: IC50 Values in μM, C3a
Protocol: as §1
as §2, with “The plates were frozen at 70° C. overnight.” left out

[15] = tested on: BT 549; experiment: Cytotoxicity propidium iodide assay, BT 549; type: cell-based; conditions: Homo sapiens; BT 549 (breast), 48 hours treatment; read-out: IC50 Values in μM, C3c
Protocol: as §1, §2

In the case of `Cn1c(=O)n(-c2ccc(C(C)(C)C#N)nc2)c2c3cc(-c4ccc5ncccc5c4)ccc3ncc21` [Example 5, 2-Methyl-2-(5-(3-methyl-2-oxo-8-(quinolin-6-yl)-2,3-dihydro-1H-imidazo[4,5-c]quinolin-1-yl)pyridin-2-yl)propanenitrile], the IC50 [1] is reported as 0.38 µM, the “Akt, S6 and 4EBP1 phosphorylation (Western blot)” value [2] is reported as “inhibit Akt, S6 and 4EBP1 phosphorylation” and the IC50 [3] is reported as 0.08 µM.

“1-(6-Chloro-2,4′-bipyridin-3-yl)-3-methyl-8-(pyridin-3-yl)-1H-imidazo[4,5-c]quinolin-2(3H)-one [Example 72]” showed an IC50 [4] of 0.0144 µM, an IC50 [5] of 0.992 µM and an IC50 [6] of 0.44 µM. For the same compound, the IC50 [7] was 1.14 µM and the IC50 [8] was 0.23 µM.

Work on `Cn1c(=O)n(-c2ccc(C(F)(F)F)nc2Cl)c2c3cc(-c4cnc(N)c(C(F)(F)F)c4)ccc3ncc21` [Example 59, 8-(6-Amino-5-(trifluoromethyl)pyridin-3-yl)-1-(2-chloro-6-(trifluoromethyl)pyridin-3-yl)-3-methyl-1H-imidazo[4,5-c]quinolin-2(3H)-one] yielded an IC50 [9] of less than 0.01 µM, an IC50 [10] of 0.042 µM and an IC50 [1] of 0.018 µM. For the same compound, the IC50 [11] was 0.07 µM, the IC50 [12] was 0.017 µM and the IC50 [13] was 0.013 µM. For the same compound, the “Akt, S6 and 4EBP1 phosphorylation (Western blot)” value [2] was “inhibit Akt, S6 and 4EBP1 phosphorylation”, the IC50 [14] was less than 0.01 µM and the IC50 [3] was less than 0.01 µM. The IC50 [15] was 0.04 µM.
